From patent US12012421B2, “Solid forms of [(1S)-1-[(2S,4R,5R)-5-(5-amino-2-oxo-thiazolo[4,5-d]pyrimidin-3-yl)-4-hydroxy-tetrahydrofuran-2-yl]propyl] acetate” (Hoffmann-La Roche Inc., priority 2018, dated 2024)
Read-outs that look alike come from different tables or passages of the source.

Key:
[1] = Physical stability of solid forms in stability chamber, solid form checked by XRPD; format: physicochemical; conditions: for Physical stability (solid form by XRPD compared with initial solid form): 40° C./75%-RH, 1 month; for Stability compared with Form Amorphous: comparison in words, accelerated storage 40° C./75%-RH
Protocol: 40 mg compound (I) in different solid forms were stored in a stability chamber with temperature and humidity controlled at 40° C. and 75%-RH, respectively. After 1 month, the samples were analyzed by XRPD to check their solid form and compared with their initial solid form.

[2] = Apparent solubility study in bio-relevant media; format: physicochemical; conditions: for Solubility: 25° C.; for Solubility / solubility at 24 h: 24 hours; for solubility at 24 h: 25 °C, thermodynamic from solid; for Apparent solubility compared with Form Amorphous: comparison in words
Protocol: Apparent solubility was determined by suspending 5 mg of compound (I) in different bio-relevant media including pH buffers, SGF, FaSSIF, and FeSSIF. The suspensions were equilibrated at 25° C. for 24 hours. The suspensions were then filtered through a 0.22 μm PVDF filter into a 2-mL HPLC vial. The quantitation of the filtrate was conducted by HPLC with reference to a standard solution.

[3] = Single dose PK (SDPK) study, oral suspension; format: in vivo, Wistar Han rat; conditions: for Cmax / Tmax: male, plasma, Wistar Han rat, n = 5; for Cmax: read-out: Cmax of Compound (I) (double prodrug) in plasma; for Tmax: read-out: Tmax of Compound (I) (double prodrug) in plasma
Protocol: Five male Wistar Han rats were administered a single oral dose of 100 or 200 mg/kg of compound (I) (either Form A or Form C). Drug was administered as a suspension in 2% klucel, 0.1% polysorbate 80 and 0.1% parabens in water. Samples were taken at various times up to 24 h and plasma was analysed for compound (I) (double prodrug), compound (Ia) (single prodrug) and compound (Ib) (single prodrug) and compound (III) (active Form).

[4] = Solid form conversion in aqueous compositions; format: physicochemical
Protocol: Form A as prepared in Example 10 was suspended in water to form a slurry at room temperature for 2 hours to afford Form B, then the solid was collected by filtration and dried under vacuum. Depending on the solvation status Form B can be a solvate, a hydrate or a polymorph of compound (I).

In the case of `CC[C@H](OC(C)=O)[C@@H]1C[C@@H](O)[C@H](n2c(=O)sc3cnc(N)nc32)O1` [Form A of compound (I), [(1S)-1-[(2S,4R,5R)-5-(5-amino-2-oxo-thiazolo[4,5-d]pyrimidin-3-yl)-4-hydroxy-tetrahydrofuran-2-yl]propyl] acetate], the “Physical stability (solid form by XRPD compared with initial solid form)” value ([1]; listed as Example 10, Form A of compound (I)) is reported as “no solid form change”, the “Stability compared with Form Amorphous” value [1] is reported as “better stability” and the Solubility ([2]; FaSSIF, listed as Example 10, Form A of compound (I)) is reported as 6330 µg/mL. For the same compound, the Solubility ([2]; FeSSIF, listed as Example 10, Form A of compound (I)) was 7930 µg/mL, the Solubility ([2]; SGF, listed as Example 10, Form A of compound (I)) was over 16360 µg/mL and the Solubility ([2]; pH1 buffer, listed as Example 10, Form A of compound (I)) was over 16280 µg/mL. It also gave a Solubility ([2]; pH3 buffer, listed as Example 10, Form A of compound (I)) of 12870 µg/mL, a Solubility ([2]; pH5 buffer, listed as Example 10, Form A of compound (I)) of 6390 µg/mL and a Solubility ([2]; pH7 buffer, listed as Example 10, Form A of compound (I)) of 6240 µg/mL. For the same compound, the Solubility ([2]; pH9 buffer, listed as Example 10, Form A of compound (I)) was 6380 µg/mL, the “Conversion rate to the single prodrug in vivo” value ([3]; Form A at 100 mg/kg compared with Form C at 200 mg/kg, in words) was “faster conversion rate” and the Cmax ([3]; PO 100 mg/kg) was 563 ng/mL. For the same compound, the Tmax ([3]; PO 100 mg/kg) was 90 min.

With `CC[C@H](OC(C)=O)[C@@H]1C[C@@H](O)[C@H](n2c(=O)sc3cnc(N)nc32)O1` [Form Amorphous of compound (I), [(1S)-1-[(2S,4R,5R)-5-(5-amino-2-oxo-thiazolo[4,5-d]pyrimidin-3-yl)-4-hydroxy-tetrahydrofuran-2-yl]propyl] acetate] the “Physical stability (solid form by XRPD compared with initial solid form)” value ([1]; listed as Example 1, Form Amorphous of compound (I)) was “solid form change”, the “Tendency to form change” value ([1]; general finding in words) was “prone to crystallization” and the Solubility ([2]; FaSSIF, listed as Example 1, Form Amorphous of compound (I)) was 6930 µg/mL. For the same compound, the Solubility ([2]; FeSSIF, listed as Example 1, Form Amorphous of compound (I)) was 7350 µg/mL, the solubility at 24 h ([2]; SGF, simulated gastric fluid) was over 10000 µg/mL and the solubility at 24 h ([2]; pH 1 buffer, pH 1, simulated gastric fluid, pH1 buffer) was over 10000 µg/mL. For the same compound, the Solubility ([2]; pH3 buffer, listed as Example 1, Form Amorphous of compound (I)) was 9570 µg/mL, the Solubility ([2]; pH5 buffer, listed as Example 1, Form Amorphous of compound (I)) was 3830 µg/mL and the Solubility ([2]; pH7 buffer, listed as Example 1, Form Amorphous of compound (I)) was 4050 µg/mL. It also gave a Solubility ([2]; pH9 buffer, listed as Example 1, Form Amorphous of compound (I)) of 5030 µg/mL.

With `CC[C@H](OC(C)=O)[C@@H]1C[C@@H](O)[C@H](n2c(=O)sc3cnc(N)nc32)O1` [Form B of compound (I), [(1S)-1-[(2S,4R,5R)-5-(5-amino-2-oxo-thiazolo[4,5-d]pyrimidin-3-yl)-4-hydroxy-tetrahydrofuran-2-yl]propyl] acetate] the “Physical stability (solid form by XRPD compared with initial solid form)” value ([1]; listed as Example 11, Form B of compound (I)) was “no solid form change”, the “Stability compared with Form Amorphous” value [1] was “better stability” and the Solubility ([2]; FaSSIF, listed as Example 11, Form B of compound (I)) was 3820 µg/mL. For the same compound, the Solubility ([2]; FeSSIF, listed as Example 11, Form B of compound (I)) was 4130 µg/mL, the Solubility ([2]; SGF, listed as Example 11, Form B of compound (I)) was over 10000 µg/mL and the Solubility ([2]; pH1 buffer, listed as Example 11, Form B of compound (I)) was over 10000 µg/mL. The Solubility ([2]; pH3 buffer, listed as Example 11, Form B of compound (I)) was 6920 µg/mL, the Solubility ([2]; pH5 buffer, listed as Example 11, Form B of compound (I)) was 3350 µg/mL and the Solubility ([2]; pH7 buffer, listed as Example 11, Form B of compound (I)) was 3400 µg/mL. The Solubility ([2]; pH9 buffer, listed as Example 11, Form B of compound (I)) was 3550 µg/mL and the “Solid form conversion / stability in aqueous environment” value [4] was “better stability in aqueous environment”.

In the case of `CC[C@H](OC(C)=O)[C@@H]1C[C@@H](O)[C@H](n2c(=O)sc3cnc(N)nc32)O1` [Form C of compound (I), [(1S)-1-[(2S,4R,5R)-5-(5-amino-2-oxo-thiazolo[4,5-d]pyrimidin-3-yl)-4-hydroxy-tetrahydrofuran-2-yl]propyl] acetate], the “Physical stability (solid form by XRPD compared with initial solid form)” value ([1]; listed as Example 2, Form C of compound (I)) is reported as “no solid form change”, the “Stability compared with Form Amorphous” value [1] is reported as “significantly improved stability” and the “Stability compared with Form Amorphous” value ([1]; listed as Form C) is reported as “better stability”. The Solubility ([2]; FaSSIF, listed as Example 2, Form C of compound (I)) was 2190 µg/mL, the Solubility ([2]; FeSSIF, listed as Example 2, Form C of compound (I)) was 2780 µg/mL and the Solubility ([2]; SGF, listed as Example 2, Form C of compound (I)) was over 10000 µg/mL. The “Apparent solubility compared with Form Amorphous” value [2] was “comparable apparent solubility”, the Solubility ([2]; pH1 buffer, listed as Example 2, Form C of compound (I)) was over 10000 µg/mL and the Solubility ([2]; pH3 buffer, listed as Example 2, Form C of compound (I)) was 4980 µg/mL. It also gave a Solubility ([2]; pH5 buffer, listed as Example 2, Form C of compound (I)) of 2240 µg/mL, a Solubility ([2]; pH7 buffer, listed as Example 2, Form C of compound (I)) of 2190 µg/mL and a Solubility ([2]; pH9 buffer, listed as Example 2, Form C of compound (I)) of 2320 µg/mL. The Cmax ([3]; PO 200 mg/kg) was 259 ng/mL and the Tmax ([3]; PO 200 mg/kg) was 19.8 min.

With `CC[C@H](OC(C)=O)[C@@H]1C[C@@H](O)[C@H](n2c(=O)sc3cnc(N)nc32)O1` [Form G of compound (I), [(1S)-1-[(2S,4R,5R)-5-(5-amino-2-oxo-thiazolo[4,5-d]pyrimidin-3-yl)-4-hydroxy-tetrahydrofuran-2-yl]propyl] acetate] the “Physical stability (solid form by XRPD compared with initial solid form)” value ([1]; listed as Example 12, Form G of compound (I)) was “no solid form change”, the “Stability compared with Form Amorphous” value [1] was “improved stability” and the “Stability compared with Form Amorphous” value ([1]; listed as Form G) was “better stability”. For the same compound, the Solubility ([2]; FaSSIF, listed as Example 12, Form G of compound (I)) was 2490 µg/mL, the Solubility ([2]; FeSSIF, listed as Example 12, Form G of compound (I)) was 2790 µg/mL and the Solubility ([2]; SGF, listed as Example 12, Form G of compound (I)) was over 10000 µg/mL. The “Apparent solubility compared with Form Amorphous” value [2] was “comparable apparent solubility”, the Solubility ([2]; pH1 buffer, listed as Example 12, Form G of compound (I)) was over 10000 µg/mL and the Solubility ([2]; pH3 buffer, listed as Example 12, Form G of compound (I)) was 6440 µg/mL. The Solubility ([2]; pH5 buffer, listed as Example 12, Form G of compound (I)) was 3750 µg/mL, the Solubility ([2]; pH7 buffer, listed as Example 12, Form G of compound (I)) was 3700 µg/mL and the Solubility ([2]; pH9 buffer, listed as Example 12, Form G of compound (I)) was 3640 µg/mL.
